Measured values as given in the NIST ThermoML archive (doi:10.1021/je0499364).

Key:
[1] = molar heat capacity at constant pressure; conditions: 101.33 kPa
[2] = Crystal
[3] = Molar enthalpy of transition or fusion; conditions: Crystal

CCCCCCCCCC(=O)OC [methyl decanoate]
[1]
Conditions	molar heat capacity at constant pressure [J/K/mol]
5 K, Crystal	0.45
10 K, Crystal	3.7
20 K, Crystal	20.01
30 K, Crystal	37.87
40 K, Crystal	57.28
50 K, Crystal	75.63
60 K, Crystal	91.46
70 K, Crystal	105.95
80 K, Crystal	119.09
90 K, Crystal	131.08
100 K, Crystal	141.62
110 K, Crystal	151.65
120 K, Crystal	160.63
130 K, Crystal	169.23
140 K, Crystal	177.35
150 K, Crystal	185.25
160 K, Crystal	192.99
170 K, Crystal	200.77
180 K, Crystal	209.01
190 K, Crystal	217.44
200 K, Crystal	226.26
210 K, Crystal	234.91
220 K, Crystal	245.06
230 K, Crystal	256.05
240 K, Crystal	269.17
250 K, Crystal	300.63
270 K, Liquid	361.09
280 K, Liquid	368.72
290 K, Liquid	372.12
300 K, Liquid	376.14
310 K, Liquid	380.31
320 K, Liquid	385.19
330 K, Liquid	389.78
340 K, Liquid	394.95
350 K, Liquid	400.2

Conditions	Molar enthalpy of transition or fusion [kcal/mol]	Triple point temperature [K]
[2]	–	260.33
[3]	8.58	–

CCCCCCCCCCCC(=O)OC [methyl dodecanoate]
[1]
Conditions	molar heat capacity at constant pressure [J/K/mol]
5 K, Crystal	0.5
10 K, Crystal	4.31
20 K, Crystal	19.62
30 K, Crystal	40.21
40 K, Crystal	63.08
50 K, Crystal	85.07
60 K, Crystal	103.02
70 K, Crystal	119.02
80 K, Crystal	134.57
90 K, Crystal	148.81
100 K, Crystal	160.46
110 K, Crystal	171.83
120 K, Crystal	181.94
130 K, Crystal	191.82
140 K, Crystal	201.16
150 K, Crystal	209.76
160 K, Crystal	218.85
170 K, Crystal	227.97
180 K, Crystal	237.26
190 K, Crystal	246.66
200 K, Crystal	256.21
210 K, Crystal	265.84
220 K, Crystal	277.21
230 K, Crystal	288.57
240 K, Crystal	299.95
250 K, Crystal	315.69
260 K, Crystal	335.52
270 K, Crystal	392.98
280 K, Liquid	428
290 K, Liquid	432.76
300 K, Liquid	438.82
310 K, Liquid	443.32
320 K, Liquid	448.38
330 K, Liquid	453.83
340 K, Liquid	460.08
350 K, Liquid	467.86

Conditions	Molar enthalpy of transition or fusion [kcal/mol]	Triple point temperature [K]
[2]	–	278.18
[3]	10.3	–

CCCCCCCCCCCCCCCCCCCC(=O)OC [methyl eicosanoate]
[1]
Conditions	molar heat capacity at constant pressure [J/K/mol]
5 K, Crystal	0.75
10 K, Crystal	5.46
20 K, Crystal	28.85
30 K, Crystal	56.97
40 K, Crystal	89.89
50 K, Crystal	122.31
60 K, Crystal	149.98
70 K, Crystal	176.8
80 K, Crystal	199.8
90 K, Crystal	220.14
100 K, Crystal	235.76
110 K, Crystal	255.12
120 K, Crystal	271.01
130 K, Crystal	285.48
140 K, Crystal	299.45
150 K, Crystal	313.11
160 K, Crystal	326.52
170 K, Crystal	339.86
180 K, Crystal	353.31
190 K, Crystal	366.99
200 K, Crystal	381.11
210 K, Crystal	395.71
220 K, Crystal	411.05
230 K, Crystal	427.04
240 K, Crystal	443.77
250 K, Crystal	461.58
260 K, Crystal	480.5
270 K, Crystal	501.55
280 K, Crystal	525.09
290 K, Crystal	551.06
300 K, Crystal	585.33
330 K, Liquid	714.47
340 K, Liquid	722.28
350 K, Liquid	732.2

Conditions	Molar enthalpy of transition or fusion [kcal/mol]	Triple point temperature [K]
[2]	–	319.48
[3]	18.83	–

CCCCCCCCCCCCCCCCC(=O)OC [methyl heptadecanoate]
[1]
Conditions	molar heat capacity at constant pressure [J/K/mol]
5 K, Crystal	0.56
10 K, Crystal	4.36
20 K, Crystal	23.27
30 K, Crystal	48.82
40 K, Crystal	77.97
50 K, Crystal	106.88
60 K, Crystal	131.71
70 K, Crystal	154.68
80 K, Crystal	175.53
90 K, Crystal	192.9
100 K, Crystal	208.51
110 K, Crystal	224.09
120 K, Crystal	238.4
130 K, Crystal	252.69
140 K, Crystal	265.74
150 K, Crystal	275.72
160 K, Crystal	284.57
170 K, Crystal	302.09
180 K, Crystal	313.76
190 K, Crystal	326.38
200 K, Crystal	340.04
210 K, Crystal	355.66
220 K, Crystal	367.89
230 K, Crystal	382.88
240 K, Crystal	399.49
250 K, Crystal	418.37
260 K, Crystal	438.62
270 K, Crystal	456.93
280 K, Crystal	480.24
290 K, Crystal	517.76
310 K, Liquid	599.17
320 K, Liquid	605.44
330 K, Liquid	609.25
340 K, Liquid	615.4
350 K, Liquid	622.81

Conditions	Molar enthalpy of transition or fusion [kcal/mol]	Triple point temperature [K]
[2]	–	303.09
[3]	15.27	–

CCCCCCCCCCCCCCCC(=O)OC [methyl hexadecanoate]
[1]
Conditions	molar heat capacity at constant pressure [J/K/mol]
5 K, Crystal	0.66
10 K, Crystal	5.56
20 K, Crystal	23.7
30 K, Crystal	47.98
40 K, Crystal	75.87
50 K, Crystal	104.12
60 K, Crystal	129.69
70 K, Crystal	151.19
80 K, Crystal	167.13
90 K, Crystal	184.19
100 K, Crystal	198.32
110 K, Crystal	213.49
120 K, Crystal	226.5
130 K, Crystal	238.62
140 K, Crystal	250.27
150 K, Crystal	261.54
160 K, Crystal	272.73
170 K, Crystal	284.03
180 K, Crystal	295.27
190 K, Crystal	306.8
200 K, Crystal	318.65
210 K, Crystal	330.97
220 K, Crystal	343.93
230 K, Crystal	357.74
240 K, Crystal	372.37
250 K, Crystal	388.24
260 K, Crystal	405.39
270 K, Crystal	423.81
280 K, Crystal	448.6
290 K, Crystal	482.7
300 K, Crystal	740.48
310 K, Liquid	570.55
320 K, Liquid	576.47
330 K, Liquid	583.02
340 K, Liquid	590.14
350 K, Liquid	597.66

Conditions	Triple point temperature [K]
[2], Adiabatic calorimetry	302.71

Conditions	Molar enthalpy of transition or fusion [kcal/mol]
[3]	14.35

CCCCCCCCCCCCCCCCCCC(=O)OC [methyl nonadecanoate]
[1]
Conditions	molar heat capacity at constant pressure [J/K/mol]
5 K, Crystal	0.69
10 K, Crystal	5.1
20 K, Crystal	26.27
30 K, Crystal	55.13
40 K, Crystal	87.37
50 K, Crystal	117.8
60 K, Crystal	143.77
70 K, Crystal	168.98
80 K, Crystal	190.79
90 K, Crystal	210.18
100 K, Crystal	228.66
110 K, Crystal	244.31
120 K, Crystal	259.07
130 K, Crystal	273.22
140 K, Crystal	286.84
150 K, Crystal	300.17
160 K, Crystal	313.53
170 K, Crystal	327.31
180 K, Crystal	339.52
190 K, Crystal	353.2
200 K, Crystal	367.35
210 K, Crystal	380.94
220 K, Crystal	397.52
230 K, Crystal	413.93
240 K, Crystal	432.32
250 K, Crystal	450.65
260 K, Crystal	469.65
270 K, Crystal	491.94
280 K, Crystal	518.01
290 K, Crystal	549.43
300 K, Crystal	586.63
320 K, Liquid	691.61
330 K, Liquid	677.17
340 K, Liquid	684.76
350 K, Liquid	693.78

Conditions	Molar enthalpy of transition or fusion [kcal/mol]	Triple point temperature [K]
[2]	–	311.49
[3]	16.95	–

CCCCCCCCC(=O)OC [methyl nonanoate]
[1]
Conditions	molar heat capacity at constant pressure [J/K/mol]
5 K, Crystal	0.39
10 K, Crystal	2.96
20 K, Crystal	17.17
30 K, Crystal	34.66
40 K, Crystal	53.39
50 K, Crystal	71.31
60 K, Crystal	86.46
70 K, Crystal	100.55
80 K, Crystal	113.08
90 K, Crystal	123.98
100 K, Crystal	134.32
110 K, Crystal	143.79
120 K, Crystal	152.28
130 K, Crystal	160.47
140 K, Crystal	168.48
150 K, Crystal	175.96
160 K, Crystal	183.23
170 K, Crystal	190.85
180 K, Crystal	198.49
190 K, Crystal	206.56
200 K, Crystal	215.27
210 K, Crystal	224.62
220 K, Crystal	236.53
230 K, Crystal	265.31
240 K, Liquid	330.8
250 K, Liquid	330.84
260 K, Liquid	333.42
270 K, Liquid	335.9
280 K, Liquid	338.72
290 K, Liquid	342.82
300 K, Liquid	346.27
310 K, Liquid	350.79
320 K, Liquid	354.3
330 K, Liquid	359.1
340 K, Liquid	363.82
350 K, Liquid	368.16

Conditions	Molar enthalpy of transition or fusion [kcal/mol]	Triple point temperature [K]
[2]	–	238.72
[3]	6.53	–

CCCCCCCCCCCCCCCCCC(=O)OC [methyl octadecanoate]
[1]
Conditions	molar heat capacity at constant pressure [J/K/mol]
5 K, Crystal	0.82
10 K, Crystal	5.96
20 K, Crystal	26.2
30 K, Crystal	52.72
40 K, Crystal	82.6
50 K, Crystal	112.11
60 K, Crystal	137.8
70 K, Crystal	162.71
80 K, Crystal	182.89
90 K, Crystal	201.46
100 K, Crystal	217.35
110 K, Crystal	234.15
120 K, Crystal	248.17
130 K, Crystal	261.72
140 K, Crystal	274.54
150 K, Crystal	286.99
160 K, Crystal	299.33
170 K, Crystal	312.93
180 K, Crystal	327.18
190 K, Crystal	341.65
200 K, Crystal	354.7
210 K, Crystal	368.18
220 K, Crystal	382.77
230 K, Crystal	397.82
240 K, Crystal	413.11
250 K, Crystal	428.51
260 K, Crystal	446.92
270 K, Crystal	468.64
280 K, Crystal	497.34
290 K, Crystal	541.05
320 K, Liquid	639
330 K, Liquid	646.44
340 K, Liquid	655.14
350 K, Liquid	664.03

Conditions	Molar enthalpy of transition or fusion [kcal/mol]	Triple point temperature [K]
[2]	–	311.84
[3]	15.86	–

CCCCCCCC(=O)OC [methyl octanoate]
[1]
Conditions	molar heat capacity at constant pressure [J/K/mol]
5 K, Crystal	0.38
10 K, Crystal	3.03
20 K, Crystal	18.19
30 K, Crystal	33.71
40 K, Crystal	50.53
50 K, Crystal	66.36
60 K, Crystal	79.75
70 K, Crystal	92.33
80 K, Crystal	103.39
90 K, Crystal	113.4
100 K, Crystal	122.25
110 K, Crystal	131.1
120 K, Crystal	138.74
130 K, Crystal	146.18
140 K, Crystal	153.44
150 K, Crystal	160.31
160 K, Crystal	167.13
170 K, Crystal	174.18
180 K, Crystal	181.34
190 K, Crystal	188.84
200 K, Crystal	196.94
210 K, Crystal	205.99
220 K, Crystal	217.68
230 K, Crystal	242.75
240 K, Liquid	301.67
250 K, Liquid	301.39
260 K, Liquid	303.17
270 K, Liquid	305.83
280 K, Liquid	308.83
290 K, Liquid	312.81
300 K, Liquid	316.17
310 K, Liquid	320.13
320 K, Liquid	323.19
330 K, Liquid	327.93
340 K, Liquid	332.21
350 K, Liquid	336.19

Conditions	Triple point temperature [K]
[2]	236.2

Conditions	Molar enthalpy of transition or fusion [kcal/mol]
[3], Adiabatic calorimetry	6.13
